Test results: patent US6867305B2, “Synthesis of epothilones, intermediates thereto and analogues thereof” (Sloan-Kettering Institute for Cancer Research, priority 1996, dated 2005)
Values after ≈ are worked out from the molar mass of the structure shown. Values joined by “and” are separate entries in the source; they are usually repeats but may differ in a detail not shown here. Identical values can stand only once. Like-named read-outs stand apart in the source and are kept apart here.

Assays:
[1] = tested on: HCT-116 colon carcinoma xenograft; test: Human tumor xenograft in nude mice; assay type: in vivo; conditions: for Therapeutic Effect Rank Order: HCT-116, i.v. infusion
Excerpt: Therapeutic efficacy of cancer chemotherapeutic agents varies with various factors including the tumor models used and the dosage of drug and schedules and routes of administration. […] In the present studies, we intended to compare the therapeutic effects of drugs near their maximal tolerated doses by measuring the extent of body-weight decreases and/or lethality.
(§1) Depending on the tumor type, treatment started on day 10 to day 21 when subcutaneous tumor size reached 35-200 mm^3, except otherwise indicated. Tumor size and body-weight were recorded every other day (Q2D) and, for humane reasons, the animals were sacrificed when tumor size reached ≧10% of body-weight. Each group, including untreated control, consisted of 3-5 animals unless otherwise indicated.
(§2) Athymic nude mice bearing the nu/nu gene were used for all human tumor xenografts. Outbred, Swiss-background mice were obtained from Charles River Laboratories. Male mice 8 weeks or older weighing 22 g and up were used for most experiments. The drug was administered via the tail vein for 6 hr.-i.v. infusion. Each individual mouse was confined in a perforated Falcon polypropylene tube restrainer for drug administration. Tumor volume was assessed by measuring length×width×height (or width) using a caliper. The programmable Harvard PHD2000 syringe pump (Harvard Apparatus) with multi-track was used for i.v. infusion. […] All animal studies were conducted in accordance with the guidelines of the National Institutes of Health “Guide for the Care and Use of Animals” and the protocol approved by the Memorial Sloan-Kettering Cancer Center's Institutional Animal Care and Use Committee. In keeping with the policy of this committee for the humane treatment of tumor-bearing animals, mice were euthanized when tumors reached ≧10% of their total body weight.
(§3) Human tumor cells (5×10^6) or tumor tissue (30-50 mg) were implanted s.c. flank in nu/nu mice (Charles River Laboratories, Wilmington, Mass.). When tumor grew to a specified size, treatment was started by every-other day×5 with 6 hr i.v.-infusion, unless otherwise indicated. Tumor volume was measured with calipers in three dimensions (length×width×height or width). Body-weight changes and lethality were monitored every other day.

[2] = tested on: CCRF-CEM human T-cell acute lymphoblastic leukemia cells; test: Tumor cell growth inhibition in vitro (XTT, 72 h); assay type: cell-based; conditions: CCRF-CEM; for IC50: 72 h incubation
Protocol: (§4) The fresh medium containing each drug was replenished every 7-14 days. […] In each case ,the drug-exposed cells were resuspended in fresh media for a minimum of 4 days before the experiments for the cell-growth inhibition was carried out.
(§5) The cells were cultured at an initial density of 2-5×10^4 cells per ml. They were maintained in a 5% CO2-humidified atmosphere at 37° C. in RPMI mediun 1640 (GIBCO/BRL) containing penicillin (100 units/ml), streptomycin (100 μg/ml) (GIBCO/BRL), and 5% heat-inactivated fetal bovine serum. For solid tumor cells growing in a monolayer (such as MCF-7/Adr), cytotoxicitiy of the drug was determined in 96-well microtiter plates by using the sulforhodamine B method as described by Skehan et al (23) for measuring the cellular protein content. For cells that were grown in suspension (such as CCRF-CEM and its sublines), cytotoxicitiy was measured by using the 2,-3-bis(2-methoxy-4-nitro-5-sulfophenyl)-5carboxanilide)-2H terazodium hydroxide (XTT)-microculture tetrazonium method (24) in duplicate in 96-well microtiter plates. For both methods, the absorbance of each well was measured with a microplate reader (EL-340, Bio-Tek, Burlington, Vt.). Each run entailed six or seven concentrations of the tested drugs. Dose-effect relationship data were analyzed with the median-effect plot (25) by using a previously described computer program (26).

[3] = tested on: DC-3F/ADII; test: Tumor cell growth inhibition in vitro; assay type: cell-based, hamster; conditions: for IC50: DC-3F/ADII; for cross-resistance (fold of resistance vs parent cell line): DC-3F/ADII vs DC-3F
Protocol: as §4, §5

[4] = tested on: PC-3 human prostate adenocarcinoma; test: Tumor cell growth inhibition in vitro; assay type: cell-based
Protocol: as §5, with “They were maintained in a 5% CO2-humidified atmosphere at 37° C. in RPMI mediun 1640 (GIBCO/BRL) containing penicillin (100 units/ml), streptomycin (100 μg/ml) (GIBCO/BRL), and 5% heat-inactivated fetal bovine serum.” left out

[5] = tested on: MX-1 human mammary carcinoma; test: Tumor cell growth inhibition in vitro; assay type: cell-based; conditions: Homo sapiens, MX1
Protocol: as §5, with “They were maintained in a 5% CO2-humidified atmosphere at 37° C. in RPMI mediun 1640 (GIBCO/BRL) containing penicillin (100 units/ml), streptomycin (100 μg/ml) (GIBCO/BRL), and 5% heat-inactivated fetal bovine serum.” left out

[6] = tested on: CCRF-CEM/VBL100 (vinblastine-resistant subline); test: Tumor cell growth inhibition in vitro (XTT, 72 h); assay type: cell-based, human; conditions: for cross-resistance (fold of resistance vs parent cell line): CCRF-CEM/VBL100 vs CCRF-CEM
Protocol: as §4, §5

[7] = tested on: UL-3-C ovarian adenocarcinoma; test: Tumor cell growth inhibition in vitro; assay type: cell-based, human
Protocol: as §4, §5

[8] = physchem
[9] = tested on: CCRF-CEM/Taxol (paclitaxel-resistant subline); test: Tumor cell growth inhibition in vitro (XTT, 72 h); assay type: cell-based, human; conditions: for cross-resistance (fold of resistance vs parent cell line): CCRF-CEM/Taxol vs CCRF-CEM; for IC50: Homo sapiens, CCRF-CEM, 72 h
Protocol: as §4, §5

[10] = tested on: CCRF-CEM/VM1 (teniposide-resistant subline); test: Tumor cell growth inhibition in vitro (XTT, 72 h); assay type: cell-based, human; conditions: for cross-resistance (fold of resistance vs parent cell line): CCRF-CEM/VM1 vs CCRF-CEM; for IC50: Homo sapiens
Protocol: as §4, §5

[11] = tested on: MCF-7/Adr; test: Tumor cell growth inhibition in vitro; assay type: cell-based, human; conditions: for IC50: MCF-7/Adr; for cross-resistance (fold of resistance vs parent cell line): MCF-7/Adr vs MCF-7
Protocol: as §5, with “They were maintained in a 5% CO2-humidified atmosphere at 37° C. in RPMI mediun 1640 (GIBCO/BRL) containing penicillin (100 units/ml), streptomycin (100 μg/ml) (GIBCO/BRL), and 5% heat-inactivated fetal bovine serum.” left out

[12] = tested on: CCRF-CEM leukemia xenograft; conditions: for body-weight reduction on day 28: CCRF-CEM-bearing nude mice, 15-azaEpoB 6 mg/kg Q2D×6
Protocol: Nude mice bearing well established CCRF-CEM tumor xenografts (average tumor size about 400 mm^3) were treated with 30 mg/kg of dEpoB or with 6 mg/kg of 15-azaEpoB, 6 hr-i.v. infusion Q2D×6 as shown in FIG. 37.
as §1, §2, §3

[13] = tested on: MX-1 mammary carcinoma xenograft
[14] = tested on: UL-3-B/Taxol; test: cells; conditions: Homo sapiens
[15] = HCT-116, dEpoB 30 mg/kg, Taxol 20 mg/kg, Q2Dx51x3, 6-hr i.v. infusion
[16] = CCRF-CEM, i.v. infusion, FIG. 5
[17] = CCRF/CEM, dEpoB 40 mg/kg, Taxol 20 mg/kg, Q2Dx4, 6-hr i.v. infusion

CC(=O)O[C@H]1C(=O)[C@@]2(C)[C@H]([C@H](OC(=O)c3ccccc3)[C@]3(O)C[C@H](OC(=O)[C@H](O)[C@@H](NC(=O)c4ccccc4)c4ccccc4)C(C)=C1C3(C)C)[C@]1(OC(C)=O)CO[C@@H]1C[C@@H]2O [Taxol, paclitaxel, reference compound]
Tumor Disappearance [1, 15]: 3/3
IC50 [2]: 1.2 nM
IC50 [3]: 20200 nM
IC50 ([3]; listed as Paclitaxel): 583 nM
IC50 [4]: 28 nM
IC50 [5]: 39.4 nM
IC50 ([6]; CCRF-CEM/VBL100, 72 h): 5170 nM
IC50 [7]: 1.5 nM
IC50 ([7]; Homo sapiens): 1.6 nM
solubility ([8]; water): ~600 µg/mL (≈ 0.703 mM)

C/C(=C\c1csc(C)n1)C1C[C@@H]2O[C@]2(C)CCC[C@H](C)[C@H](O)[C@@H](C)C(=O)C(C)(C)C(O)CC(=O)N1 (some centres unmarked) [aza-EpoB, aza-epothilone B]
IC50 ([2]; Homo sapiens, read-out: IC50): 2.1 nM
cross-resistance (fold of resistance vs parent cell line) [3]: 274 x
cross-resistance (fold of resistance vs parent cell line) ([3]; listed as 15-aza-EpoB): 33.1 x
IC50 ([3]; listed as 15-aza-EpoB, read-out: IC50): 288 nM
IC50 ([3]; read-out: IC50): 2380 nM
IC50 [4]: 42 nM
IC50 [5]: 2.4 nM
cross-resistance (fold of resistance vs parent cell line) [9]: 81.4 x
IC50 ([9]; read-out: IC50): 171 nM
cross-resistance (fold of resistance vs parent cell line) [10]: 18.6 x
cross-resistance (fold of resistance vs parent cell line) ([10]; listed as 15-aza-EpoB): 118.6 x
IC50 ([10]; CCRF-CEM/VM1, 72 h, read-out: IC50): 39 nM
cross-resistance (fold of resistance vs parent cell line) [6]: 1423 x
IC50 ([6]; Homo sapiens, CCRF-CEM/VBL100, 72 h, read-out: IC50): 2990 nM
IC50 ([11]; Homo sapiens, NCI/ADR-RES, read-out: IC50): 11.8 nM
cross-resistance (fold of resistance vs parent cell line) [11]: 2.7 x
Therapeutic Effect Rank Order [12, 16]: dEpoF>>>15-azaEpoB
therapeutic effect on tumor growth ([12]; CCRF-CEM, tumor about 400 mm^3, 15-azaEpoB 6 mg/kg, 6 hr-i.v. infusion Q2D×6): Moderate suppression of tumor growth
body-weight reduction on day 28 ([12]; dEpoF 30 mg/kg): about 10%
IC50 ([7]; Homo sapiens, read-out: IC50): 1.2 nM
mice died of toxicity on day 22 ([13]; MX-1-bearing mice, azaEpoB 6 mg/kg): one out of five
Therapeutic Effect Rank Order ([13]; mouse, in vivo, iv): dEpoB>>>15-azaEpoB
IC50 [14]: 15 nM

C/C1=C/C[C@@H](/C(C)=C/c2csc(C)n2)OC(=O)C[C@H](O)C(C)(C)C(=O)[C@H](C)[C@@H](O)[C@@H](C)CCC1 [dEpoB, 12,13-desoxyepothilone B]
Therapeutic Effect Rank Order [1]: Taxol, CPT-11≈dEpoB, dEpoF
Lowest Average Tumor Size (T/C) [1, 15]: 0
Tumor Disappearance [1, 15]: 1/2
IC50 [2]: 7.4 nM
IC50 ([2]; Homo sapiens, 72 h): 9.5 nM
IC50 [4]: 20.9 nM
IC50 [5]: 22.1 nM
cross-resistance (fold of resistance vs parent cell line) [9]: 1.7 x and 1.2 x
IC50 [9]: 16.2 nM
cross-resistance (fold of resistance vs parent cell line) [10]: 1.5 x
IC50 ([10]; CCRF-CEM, 72 h): 14 nM
IC50 ([6]; Homo sapiens, CCRF-CEM, 72 h): 17 nM
IC50 ([11]; Homo sapiens, NCI/ADR-RES): 7.15 nM
IC50 [11]: 13.3 nM
Therapeutic Effect Rank Order ([12]; CCRF-CEM, i.v. infusion (dEpoB vs Taxol)): dEpoB≈Taxol
Lowest Average Tumor Size (T/C) [12, 17]: 0
Tumor Disappearance [12, 17]: 2/2
IC50 ([7]; Homo sapiens, read-out: IC50): 2.1 nM
solubility [8]: ~10000 µg/mL (≈ 20.3 mM)
tumor disappearance on day 22 ([13]; MX-1, dEpoB 30 mg/kg Q2D×6 (day 10-20) then Q2D×5 (day 26-34)): ⅕
tumor disappearance on day 38 ([13]; MX-1, dEpoB 30 mg/kg Q2D×6 then Q2D×5): ⅖
body-weight gain during day 36-40 ([13]; MX-1-bearing mice, after dEpoB second cycle): about 2 gm
body-weight decrease on day 22 ([13]; MX-1-bearing mice, dEpoB 30 mg/kg Q2D (day 10-20)): about 3.5 gm
body-weight drop on day 36 ([13]; MX-1-bearing mice, dEpoB second cycle Q2D×5 (day 26-34)): about 4.1 gm
Lowest Average Tumor Size (T/C) ([13]; mouse, in vivo): 0
Therapeutic Effect Rank Order ([13]; mouse, in vivo): dEpoB>Adriamycin>Taxol
Tumor Disappearance ([13]; mouse, in vivo): 5/5
Therapeutic Effect Rank Order ([13]; mouse, in vivo, ip): dEpoB>Camptothecin>Taxol>VBL, EpoB
IC50 [14]: 7 nM

C/C1=C/C[C@@H](/C(C)=C/c2csc(CO)n2)OC(=O)C[C@H](O)C(C)(C)C(=O)[C@H](C)[C@@H](O)[C@@H](C)CCC1 [dEpoF, 12,13-Desoxyepothilone F]
Therapeutic Effect Rank Order [1]: Taxol, CPT-11≈dEpoB, dEpoF
potency relative to dEpoB (times less potent) [2]: slightly less potent than dEpoB
IC50 [2]: 2.7 nM
IC50 [3]: 18.1 nM
IC50 ([3]; Mesocricetus auratus, DC3F): 22.3 nM
IC50 [4]: 11.9 nM
IC50 [5]: 4.2 nM
cross-resistance (fold of resistance vs parent cell line) [9]: 2.0 x
IC50 [9]: 5.3 nM
cross-resistance (fold of resistance vs parent cell line) [10]: 1.8 x
IC50 ([10]; CCRF-CEM, 72 h): 4.9 nM
cross-resistance (fold of resistance vs parent cell line) [6]: 17.4 x
IC50 ([6]; Homo sapiens, CCRF-CEM, 72 h): 47 nM
IC50 ([11]; Homo sapiens, NCI/ADR-RES): 9.7 nM
IC50 [11]: 18.6 nM
cross-resistance (fold of resistance vs parent cell line) [11]: 1.4 x and 1.9 x
tumor free mice on day 28 ([12]; CCRF-CEM, dEpoF 30 mg/kg, 6 hr-i.v. infusion Q2D×6): one of three mice was tumor free
Therapeutic Effect Rank Order [12, 16]: dEpoF>>>15-azaEpoB
body-weight reduction on day 28 ([12]; dEpoF 30 mg/kg): about 10%
IC50 ([7]; Homo sapiens, read-out: IC50): 4.8 nM
solubility [8]: ~25000 µg/mL (≈ 49.2 mM)
therapeutic effect on tumor growth ([13]; MX-1, dEpoF 15 mg/kg Q2D×5, 6 hr-i.v. infusion): tumor growth was partially suppressed
tumor disappearance (tumor free mice) ([13]; MX-1, dEpoF 30 mg/kg Q2D×5, 6 hr-i.v. infusion): three out of five
IC50 [14]: 6.7 nM
